In one data set the test system is LL2. Briefly: Anti-IL-1β in combination with docetaxel in aggressive lung model (LL2). It is filed as in vivo, mouse. Particulars: LL2, FIG. 15A.
Data set [1] deals with 4T1 tumors. Briefly: 4T1 tumors treated with 01BSUR and docetaxel, tumor burden. It is filed as in vivo, mouse. Particulars: 4T1 s.c., treated days 8 and 15 post implant. How it is done:
FIG. 16. Mice were implanted with 4T1 cells sc and treated with the indicated treatments on days 8 and 15 post tumor implant. There were 10 mice in each group.
(§1) Female Balb/c mice with 4T1 tumors implanted subcutaneously (s.c.) on the right flank were treated 8 and 15 days post-tumor implant initiating when the tumors reached about 100 mm^3 with the isotype antibody, docetaxel, 01BSUR, or a combination of docetaxel and 01BSUR. […] 5 days after the first dose, tumors were harvested and analyzed for changes to the infiltrating immune cell populations. This was done again at the end point of the study, 4 days after the second dose.

The test system of data set [2] is 4T1 tumors. The data set is described as follows: TIL analysis of 4T1 tumors after docetaxel and 01BSUR. It is filed as in vivo, mouse. How it is done: as §1
Data set [3] relates to MDA-MB-231Luc2-TdTomato cells. The data set is described as follows: Spontaneous human breast cancer metastasis to human bone implants in NOD SCID mice. It is filed as in vivo, mouse. The following applies: for size of bone metastases vs control group: FIG. 4a; for mice with metastasis detected in human bone implants: n=10/group, IL-1Ra 1 mg/kg daily, canakinumab 10 mg/kg s.c. every 14 days from day 7, control 7 out of 10; for tumor cells counted in whole blood: placebo 108 tumor cells/ml. How it is done: FIG. 4. Pharmacological blockade of IL-1β inhibits spontaneous metastasis to human bone in vivo. Female NOD-SCID mice bearing two 0.5 cm^3 pieces of human femoral bone received intra-mammary injections of MDA-MB-231Luc2-TdTomato cells. […] All animals were culled 35 days following tumour cell injection. Effects on bone metastases (a) were assessed in vivo and immediately post-mortem by luciferase imaging and confirmed ex vivo on histological sections. Data are shown as numbers of photons per second emitted 2 minutes following sub-cutaneous injection of D-luciferin. Effects on numbers of tumour cells detected in the circulation are shown in (b). *=P<0.01, **=P<0.001, ***=P<0.0001.
To model human breast cancer metastasis to human bone implants two human bone discs were implanted subcutaneously into 10-week old female NOD SCID mice (n=10/group) under isofluorane anaesthetic. Mice received an injection of 0.003 mg vetergesic and Septrin was added to the drinking water for 1 week following bone implantation. Mice were left for 4 weeks before injecting 1×10^5 MDA-MB-231 Luc2-TdTomato, MCF7 Luc2 or T47D Luc2 cells in 20% Martigel/79% PBS/1% […] into the two hind mammary fat pads. Primary tumor growth and development of metastases was monitored weekly using an IVIS […] system (Caliper Life Sciences) following sub-cutaneous injection of 30 mg/ml D-luciferin (Invitrogen). On termination of experiments mammary tumors, circulating tumor cells, serum and bone metastases were resected. RNA was processed for downstream analysis by real time PCR, and cell lysates were taken for protein analysis and whole tissue for histology as previously described (Nutter et al., 2014; Ottewell et al., 2014a).
(§2) Tumor cells, serum, and bone were subsequently resected for downstream analysis.
Whole blood was centrifuged at 10,000×g for 5 minutes and the serum removed for ELISA assays. The cell pellet was re-suspended in 5 ml of FSM lysis solution (Sigma-Aldrich, Pool, UK) to lyse red blood cells. Remaining cells were re-pelleted, washed 3× in PBS and re-suspended in a solution of PBS/10% FCS. Samples from 10 mice per group were pooled prior to isolation of TdTomato positive tumor cells using a MoFlow High performance cell sorter (Beckman Coulter, Cambridge UK) with the […] laser line from a Coherent I-90C tenable argon ion (Coherent, Santa Clara, Calif.). TdTomato fluorescence was detected by a 555LP dichroic long pass and a 580/30 nm band pass filter. Acquisition and analysis of cells was performed using Summit 4.3 software. Following sorting cells were immediately placed in RNA protect cell reagent (Ambion, Paisley, Renfrew, UK) and stored at −80° C. before RNA extraction. For counting numbers of circulating tumor cells, TdTomato fluorescence was detected using a 561 nm laser and an YL1-A filter (585/16 emission filter). Acquisition and analysis of cells was performed using Attune N×T software.

Another data set relates to bone vasculature. The data set is described as follows: Bone microvasculature after IL-1 blockade in mice (CD34 staining, ELISA for endothelin 1 and VEGF). It is filed as in vivo, mouse. The following applies: for average length of CD34+ blood vessels in trabecular bone: IL-1Ra in BALB/c nude mice, canakinumab in C57BL/6 mice; for average length of CD34+ blood vessels in trabecular bone / endothelin 1 concentration (ELISA) vs control: p<0.01; for VEGF concentration (ELISA) vs control / endothelin 1 concentration (ELISA) vs control: bone marrow; for VEGF concentration (ELISA) vs control: IL-1R antagonist p<0.01, canakinumab p<0.001. How it is done:
FIG. 7. IL-1β in the bone microenvironment stimulates expansion of the bone metastatic niche. Effects of adding 40 pg/ml or 5 ng/ml recombinant IL-1β to MDA-MB-231 or T47D breast cancer cells is shown in (a) and effects on adding 20 pg/ml, 40 pg/ml or 5 ng/ml IL-1B on proliferation of HS5, bone marrow, or OB1, osteoblasts, are shown in b) and c) respectively. (d) IL-1 driven alterations to the bone vasculature was measured following CD34 staining in the trabecular region of the tibiae from 10-12-week old female IL-1R1 knockout mice. […] Data are shown as mean+/−SEM, *=P<0.01, **=P<0.001, ***=P<0.0001.
FIG. 8. Suppression of IL-1 signalling affects bone integrity and vasculature. […] Data shown are mean+/−SEM, *=P<0.01, **=P<0.001, ***=P<0.0001 compared with control.
as §2

A further data set concerns CML LSC. Particulars: recombinant IL-1RA; cited from earlier work.
Data set [4] has as its system high-sensitivity C-reactive protein (hsCRP). The following applies: 50, 150, 300 mg s.c. every 3 months, dose-dependent; median follow-up 3.7 years; cited from earlier work.
For another data set, the target named is mouse IL-1β (Mus musculus, UniProt P10749). Briefly: Cross-reactivity with mouse IL-1β. Format: binding.
Sequence of mouse IL-1β (P10749 118-269): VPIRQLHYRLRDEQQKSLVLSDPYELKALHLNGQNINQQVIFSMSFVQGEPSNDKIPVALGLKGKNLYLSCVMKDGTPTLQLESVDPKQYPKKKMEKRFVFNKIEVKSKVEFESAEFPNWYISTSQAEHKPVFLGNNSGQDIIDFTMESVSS
Another data set deals with interleukin 6. Particulars: 50, 150, 300 mg s.c. every 3 months, dose-dependent; median follow-up 3.7 years; cited from earlier work.
Data set [5] in a line: Gevokizumab clinical pharmacokinetics. It is filed as in vivo, human. The following applies: subcutaneous administration.
For the next data set, the system named is hsCRP. The data set is described as follows: Gevokizumab clinical hsCRP reduction in type 2 diabetes patients. Format: in vivo, human. The following applies: top dose 0.3 mg/kg (~20 mg) Q4W. The source says:
FIG. 12. Clinical data after gevokizumab treatment (panel a) and its extrapolation to higher doses (panels b, c, and d). Adjusted percent change from baseline in hsCRP in patients in a). The hsCRP exposure-response relationship is shown in b) for six different hsCRP base line concentrations.

Consider `CC(=O)O[C@@]12CO[C@@H]1C[C@H](O)[C@@]1(C)C(=O)[C@H](O)C3=C(C)[C@@H](OC(=O)[C@H](O)[C@@H](NC(=O)OC(C)(C)C)c4ccccc4)C[C@@](O)([C@@H](OC(=O)c4ccccc4)[C@H]21)C3(C)C` [docetaxel], for which the “efficacy (tumor growth)” value in the data set on LL2 was “modest efficacy”. Further, the “tumor growth vs vehicle/isotype control” value in the data set on 4T1 tumors [1] is “enhanced”. Also, in the data set with 4T1 tumors [2] (4 days after a second dose), the “CD4+ and CD8+ T cells expressing TIM-3 vs control” value was “no change”. For the same compound, in the data set with 4T1 tumors [2] (5 days after a single dose), the “granulocytic MDSC in 4T1 tumors” value is “decrease”, the “monocytes in 4T1 tumors vs vehicle/isotype” value is given as “decrease”, the “monocytic MDSC in 4T1 tumors” value is recorded as “decrease” and the “neutrophils in 4T1 tumors” value was “decrease”.
In the case of “IL-1Ra: recombinant IL-1 receptor antagonist (Anakinra)”, in data set [3], the “size of bone metastases vs control group” value is “smaller”, the “mice with metastasis detected in human bone implants” value is 4 out of 10 and the “tumor cells counted in whole blood” value was 3 tumor cells/ml. In the data set with bone vasculature, the “average length of CD34+ blood vessels in trabecular bone” value is reported as “reduced”, the “VEGF concentration (ELISA) vs control” value is “reduced concentrations” and the “endothelin 1 concentration (ELISA) vs control” value is on record as “reduced concentrations”. The “growth of CML LSC” value with CML LSC is on record as “inhibited growth”.
Regarding “canakinumab: high-affinity, fully human monoclonal antibody of the IgG1/k to interleukin-1β (SEQ ID NO:17 and 18)”, the “reductions in concentrations of hsCRP compared with placebo” value in data set [4] is recorded as 26-41%. Further, in data set [3], the “size of bone metastases vs control group” value is listed as “smaller”, the “mice with metastasis detected in human bone implants” value was 1 out of 10 and the “tumor cells counted in whole blood” value was 3 tumor cells/ml. Moreover, the “cross-reactivity with mouse IL-1β” value in the data set with mouse IL-1β is reported as “does not cross-react”. Moreover, in the data set with bone vasculature, the “average length of CD34+ blood vessels in trabecular bone” value is “reduced”, the “VEGF concentration (ELISA) vs control” value was “reduced concentrations” and the “endothelin 1 concentration (ELISA) vs control” value was “reduced concentrations”. In the data set on interleukin 6, the “reductions in concentrations of interleukin 6 compared with placebo” value is on record as 25-43%.
Regarding “gevokizumab: high-affinity, humanized monoclonal antibody of the IgG2 isotype to interleukin-1β (SEQ ID NO:19 and 20)”, the Bioavailability result in data set [5] is on record as “about 56%”. For the same compound, the “reduction of hsCRP” value in the data set with hsCRP is listed as “up to 45%”.

The values above are taken from patent US20220025036A1, “USE OF IL-1BETA BINDING ANTIBODIES” (NOVARTIS AG, priority 2018, published 2022).
